Results taken from patent publication US11542249B2, “BTK inhibitor compounds” (Eli Lilly and Company, priority 2017, dated 2023).

How the values were obtained:
human BTK = human BTK (Homo sapiens (Human), UniProt Q06187); test: BTK LANTHASCREEN Eu Kinase Binding Assay; conditions: IC50 value ± standard deviation; full-length His-labeled BTK, kinase tracer 236; read-out: hBTK Rel IC50
Method: (§1) BTK and EGFR in Vitro Assays:
(§2) The BTK and EGFR biochemical assays utilize LANTHASCREEN® Eu Kinase Binding Assays from Thermo Fisher Scientific, measuring the binding of the kinase with a […] tracer. The assay buffer consists of 50 mM HEPES pH 7.5, 0.01% BRU™-35, 10 mM MgCl2, 1 mM EGTA, and 1 mM DTT. The test compounds are diluted and added to the assay plate with a Labcyte ECHO® 555 liquid handler. The compounds are tested in 10 point dose response curves (100 μM-0.005 μM) with a maximum DMSO concentration of 1%. The assays are performed in 20 μL in low-volume 384-well white proxiplates. For the BTK assay, the concentration of full-length His-labeled BTK in the assay is 5 nM, the Eu-anti-His antibody is 2 nM, and the kinase tracer 236 is 60 nM. For the EGFR assay, the concentration of truncated (amino acids 668-1210) GST-labeled EGFR is 5 nM, the Eu-anti-GST antibody is 2 nM, and the kinase tracer 199 is 10 nM. The components of the assay (compound, enzyme/antibody, tracer) are assembled and incubated for 30 min prior to being read on a Perkin-Elmer EnVision with excitation at 340 nm, tracer emission at 665 nm, and antibody emission at 615 nm. The signal ratio is converted to percent inhibition using the following equation: % Inhibition=100−[(Test Compound−Median Minimum)/(Median Maximum−Median Minimum)×100].
(§3) The following Table 1 and Table 2 describes the relative IC50 data vs. human BTK, human EGFR, and human whole blood CD69.

[1] = test system: activated B cells in human whole blood (CD69); test: Human Whole Blood CD69 in vitro assay (B cell activation, flow cytometry); type: cell-based; conditions: IC50 value ± standard deviation, anti-human-IgD-Dextran stimulation, read-out: HWB CD69 Rel IC50
Method: Human Whole Blood CD69 in Vitro Assay:
The HWB CD69 assay measures activated B cells in human whole blood using a flow cytometer. Compounds are diluted and added to assay plates with a Labcyte ECHO® 555 liquid handler. Compounds are tested in 10 point dose response curves (20 μM-0.001 μM) in 96-well v-bottom plates with a maximum DMSO concentration of 0.2%. Fresh blood from individual healthy volunteer is mixed with HEPES (0.5 ml HEPES added per 10 ml blood) and 100 μl/well is added to compound plates. The plates are sealed and incubated in a 37° C. incubator for 3 h. Anti-human-IgD-Dextran is added to each well to give a final concentration of 100 ng/ml, mixed, and put back into the incubator. After 1 h, the cells are washed with cold FACS buffer and transferred to a deep well plate. The cells are incubated with anti-human CD69-PE (BIOLEGEND®, clone FN50) and anti-human CD19-APC (BIOLEGEND®, clone HIB19) antibodies on ice for 20 min. The cells are washed and incubated in eBioscience™ 1-step Fix/Lyse solution (10×) at RT to lyse the red blood cells and fix the other cells. The white cells are pelleted and washed in FACS buffer and then brought up in read buffer. The suspended cells are transferred to 96-well round bottom plates and read on an IntelliCyt iQue® Screener Plus flow cytometer. From the SSC (Side Scatter Channel) vs FSC (Forward Scatter Channel) graph, the lymphocytes are identified. Lymphocytes are identified with gated on positive CD19 marker for quantify CD69 (a marker of activated B lymphocytes) MFI (mean fluorescent intensity/cell). The signal ratio is converted to percent inhibition using the following equation: % Inhibition=100−[(Test Compound−Median Min)/(Median Max−Median Min)×100].
as §3

human EGFR = human EGFR (Homo sapiens (Human), UniProt P00533); test: EGFR LANTHASCREEN Eu Kinase Binding Assay; conditions: IC50 value ± standard deviation; truncated GST-labeled EGFR, kinase tracer 199; read-out: hEGFR Rel IC50
Method: as §1, §2

Chain of human BTK (Q06187 whole entry): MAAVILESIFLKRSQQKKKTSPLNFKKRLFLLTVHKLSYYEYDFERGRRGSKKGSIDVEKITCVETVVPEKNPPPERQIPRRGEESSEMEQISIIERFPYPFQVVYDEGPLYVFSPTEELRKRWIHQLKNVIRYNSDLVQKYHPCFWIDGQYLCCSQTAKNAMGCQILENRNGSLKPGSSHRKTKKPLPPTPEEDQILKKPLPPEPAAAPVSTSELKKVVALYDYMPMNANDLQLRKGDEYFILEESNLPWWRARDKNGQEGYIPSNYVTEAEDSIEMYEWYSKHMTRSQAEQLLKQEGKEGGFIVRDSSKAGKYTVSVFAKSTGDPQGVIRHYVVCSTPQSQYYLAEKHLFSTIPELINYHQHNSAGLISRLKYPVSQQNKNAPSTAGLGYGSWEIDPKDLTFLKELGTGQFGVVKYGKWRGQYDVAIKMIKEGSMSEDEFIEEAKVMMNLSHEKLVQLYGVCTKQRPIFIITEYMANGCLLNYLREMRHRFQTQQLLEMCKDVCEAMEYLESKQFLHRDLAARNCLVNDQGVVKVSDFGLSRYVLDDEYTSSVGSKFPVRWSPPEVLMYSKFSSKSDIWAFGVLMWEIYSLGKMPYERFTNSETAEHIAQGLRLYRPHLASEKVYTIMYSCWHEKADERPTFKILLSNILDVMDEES
Chain of human EGFR (P00533 668-1210): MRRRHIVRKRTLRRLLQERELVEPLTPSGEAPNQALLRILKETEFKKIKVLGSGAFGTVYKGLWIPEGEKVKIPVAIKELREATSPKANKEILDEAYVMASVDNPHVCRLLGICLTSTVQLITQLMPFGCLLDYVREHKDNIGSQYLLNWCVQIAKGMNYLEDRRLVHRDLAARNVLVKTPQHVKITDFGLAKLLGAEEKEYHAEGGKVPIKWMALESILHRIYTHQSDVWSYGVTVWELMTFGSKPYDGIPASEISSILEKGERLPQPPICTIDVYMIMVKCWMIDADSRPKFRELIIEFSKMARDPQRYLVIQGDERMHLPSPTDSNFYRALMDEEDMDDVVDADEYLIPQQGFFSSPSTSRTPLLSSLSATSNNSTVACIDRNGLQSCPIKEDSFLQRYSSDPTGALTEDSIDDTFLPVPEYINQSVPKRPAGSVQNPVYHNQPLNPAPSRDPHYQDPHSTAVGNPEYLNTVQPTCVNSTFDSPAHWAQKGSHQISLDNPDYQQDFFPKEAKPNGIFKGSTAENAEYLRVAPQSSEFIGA

SMILES | IC50 (human BTK) [nM] | IC50 [1] [nM] | IC50 (human EGFR) [nM]
C=CC(=O)N1CC(Nc2cncc(-c3cnc(Nc4ccccc4OC(F)(F)F)nc3)n2)C1 [Example 43, 1-[3-[[6-[2-[2-(trifluoromethoxy)anilino]pyrimidin-5-yl]pyrazin-2-yl]amino]azetidin-1-yl]prop-2-en-1-one] | < 5 | 105 ± 43 | 676 ± 23
C=CC(=O)N1CC[C@H](Nc2cncc(-c3cnc(Nc4cccc(C)n4)nc3)c2)C1 [Example 17, 1-{(3S)-3-[(5-{2-[(6-methylpyridin-2-yl)amino]pyrimidin-5-yl}pyridin-3-yl)amino]pyrrolidin-1-yl}prop-2-en-1-one] |  | 242 ± 64.3 | 
C=CC(=O)N1CC[C@H](Nc2cncc(-c3cnc(Nc4cccc(Cl)c4)nc3)n2)C1 [Example 34, 1-[(3S)-3-[[6-[2-(3-chloroanilino)pyrimidin-5-yl]pyrazin-2-yl]amino]pyrrolidin-1-yl]prop-2-en-1-one] | 18.3 | 130 ± 44.7 | 639 ± 256
C=CC(=O)N1CC[C@H](Nc2cncc(-c3cnc(Nc4cccc(Cl)c4)nc3)c2)C1 [Example 15] | 6.01 ± 0.579 | 219 ± 86 | 1370 ± 1210
C=CC(=O)N1CC(Nc2cncc(-c3cnc(Oc4ccccc4)nc3)n2)C1 [Example 28, 1-[3-[[6-(2-phenoxypyrimidin-5-yl)pyrazin-2-yl]amino]azetidin-1-yl]prop-2-en-1-one] | 42.9 ± 5.09 | 742 ± 323 | 1470 ± 209
C=CC(=O)N1CC(Nc2cncc(-c3cnc(Nc4cccc(OC(F)(F)F)c4)nc3)n2)C1 [Example 37, 1-[3-[[6-[2-[3-(trifluoromethoxy)anilino]pyrimidin-5-yl]pyrazin-2-yl]amino]azetidin-1-yl]prop-2-en-1-one] | < 5 | 136 ± 66.8 | 306 ± 33.8
C=CC(=O)N1CC(Nc2cncc(-c3cnc(Oc4cccc(Cl)c4F)nc3)c2)C1 [Example 2, 1-[3-[[5-[2-(3-chloro-2-fluoro-phenoxy)pyrimidin-5-yl]-3-pyridyl]amino]azetidin-1-yl]prop-2-en-1-one] | 6.89 ± 2.62 | 141 ± 41.3 | 121 ± 66.4
CN(C)C/C=C/C(=O)N1CCC(Nc2cncc(-c3cnc(Oc4cccc(Cl)c4)nc3)n2)CC1 [Example 45, (E)-1-[4-[[6-[2-(3-chlorophenoxy)pyrimidin-5-yl]pyrazin-2-yl]amino]-1-piperidyl]-4-(dimethylamino)but-2-en-1-one] | 43.8 ± 4.17 | 466 ± 159 | 52600 ± 28800
C=CC(=O)N1CC(Nc2cncc(-c3cnc(Oc4cccc(F)c4)nc3)n2)C1 [Example 25, 1-[3-[[6-[2-(3-fluorophenoxy)pyrimidin-5-yl]pyrazin-2-yl]amino]azetidin-1-yl]prop-2-en-1-one] | 19.3 ± 3.28 | 306 ± 63.6 | 1580 ± 110
CN(C)C/C=C/C(=O)N1CCC(Nc2cncc(-c3cnc(Nc4cccc(Cl)c4)nc3)c2)CC1 [Example 23, (E)-1-[4-[[5-[2-(3-chloroanilino)pyrimidin-5-yl]-3-pyridyl]amino]-1-piperidyl]-4-(dimethylamino)but-2-en-1-one] | 24.1 ± 4.28 | 475 ± 166 | 26500 ± 2880
C=CC(=O)N1CC(C)(Nc2cncc(-c3cnc(Oc4cccc(Cl)c4)nc3)n2)C1 [Example 29, 1-[3-[[6-[2-(3-chlorophenoxy)pyrimidin-5-yl]pyrazin-2-yl]amino]-3-methyl-azetidin-1-yl]prop-2-en-1-one] | 17.7 ± 1.35 | 584 ± 372 | 3470 ± 911
C=CC(=O)N1CCC(Nc2cncc(-c3cnc(Nc4ccccn4)nc3)c2)CC1 [Example 22, 1-[4-[[5-[2-(2-pyridylamino)pyrimidin-5-yl]-3-pyridyl]amino]-1-piperidyl]prop-2-en-1-one] | 31 ± 12.4 | 227 ± 81.1 | 3390 ± 2070
C=CC(=O)N1CC(Nc2cncc(-c3cnc(Oc4ccc(Cl)cc4)nc3)n2)C1 [Example 41, 1-[3-[[6-[2-(4-chlorophenoxy)pyrimidin-5-yl]pyrazin-2-yl]amino]azetidin-1-yl]prop-2-en-1-one] | 96.8 ± 15.6 | 2160 ± 420 | 2110 ± 487
C=CC(=O)N1CC[C@H](Nc2cncc(-c3cnc(Nc4ccccc4OC(F)(F)F)nc3)n2)C1 [Example 36, 1-[(3S)-3-[[6-[2-[2-(trifluoromethoxy)anilino]pyrimidin-5-yl]pyrazin-2-yl]amino]pyrrolidin-1-yl]prop-2-en-1-one] | 6.72 ± 1.7 | 161 ± 71 | 15200 ± 654
C=CC(=O)N1CC(Nc2cncc(-c3cnc(Oc4cccc(Cl)c4)nc3)c2)C1 [Example 7, 1-[3-[[5-[2-(3-chlorophenoxy)pyrimidin-5-yl]-3-pyridyl]amino]azetidin-1-yl]prop-2-en-1-one] | 9.73 ± 2.01 | 180 ± 46 | 129 ± 55.3
C=CC(=O)N1CC(Nc2cncc(-c3cnc(Oc4cccc(C#N)c4)nc3)c2)C1 [Example 3, 3-[5-[5-[(1-prop-2-enoylazetidin-3-yl)amino]-3-pyridyl]pyrimidin-2-yl]oxybenzonitrile] |  | 595 ± 326 | 
C=CC(=O)N1CC[C@H](Nc2cncc(-c3cnc(Oc4cccc(Cl)c4)nc3)c2)C1 [Example 6, 1-[(3S)-3-[[5-[2-(3-chlorophenoxy)pyrimidin-5-yl]-3-pyridyl]amino]pyrrolidin-1-yl]prop-2-en-1-one] | 72.4 ± 4.22 | 671 ± 236 | 5180 ± 441
C=CC(=O)N1CC(Nc2cncc(-c3cnc(Oc4cccc(OC)c4)nc3)n2)C1 [Example 42, 1-[3-[[6-[2-(3-methoxyphenoxy)pyrimidin-5-yl]pyrazin-2-yl]amino]azetidin-1-yl]prop-2-en-1-one] | 19.4 ± 1.67 | 226 ± 53 | 2820 ± 492
C=CC(=O)N1CC(Nc2cncc(-c3cnc(Oc4cccc(C(F)(F)F)c4)nc3)n2)C1 [Example 26, 1-[3-[[6-[2-[3-(trifluoromethyl)phenoxy]pyrimidin-5-yl]pyrazin-2-yl]amino]azetidin-1-yl]prop-2-en-1-one] | 30.2 ± 4.32 | 490 ± 255 | 4030 ± 1920
C=CC(=O)N1CCC(Nc2cncc(-c3cnc(Nc4cccc(C)n4)nc3)c2)CC1 [Example 20, 1-[4-[[5-[2-[(6-methyl-2-pyridyl)amino]pyrimidin-5-yl]-3-pyridyl]amino]-1-piperidyl]prop-2-en-1-one] | 16.9 ± 3.93 | 208 ± 132 | 2220 ± 649
C=CC(=O)N1CC(Nc2cncc(-c3cnc(Nc4ccc(F)c(Cl)c4)nc3)n2)C1 [Example 35, 1-[3-[[6-[2-(3-chloro-4-fluoro-anilino)pyrimidin-5-yl]pyrazin-2-yl]amino]azetidin-1-yl]prop-2-en-1-one] | < 5 | 107 ± 45.4 | 37.3 ± 26.1
C=CC(=O)N1CC(C)(Nc2cncc(-c3cnc(Oc4cccc(Cl)c4)nc3)c2)C1 [Example 12, 1-[3-[[5-[2-(3-chlorophenoxy)pyrimidin-5-yl]-3-pyridyl]amino]-3-methyl-azetidin-1-yl]prop-2-en-1-one] | 6.95 ± 0.395 | 200 ± 52.4 | 509 ± 246
C=CC(=O)N1CC[C@H](Nc2cncc(-c3cnc(Nc4cccc(OC(F)F)c4)nc3)c2)C1 [Example 16, (S)-1-(3-((5-(2-((3-(difluoromethoxy)phenyl)amino)pyrimidin-5-yl)pyridin-3-yl)amino)pyrrolidin-1-yl)prop-2-en-1-one] |  | 118 ± 56 | 
C=CC(=O)N1CC(Nc2cncc(-c3cnc(Oc4cccc(OC(F)(F)F)c4)nc3)c2)C1 [Example 10, 1-[3-[[5-[2-[3-(trifluoromethoxy)phenoxy]pyrimidin-5-yl]-3-pyridyl]amino]azetidin-1-yl]prop-2-en-1-one] | 34.5 ± 8.08 | 263 ± 129 | 
